The values that follow come from US12281118B2, “Nitrogen-containing fused heterocyclic SHP2 inhibitor compound, preparation method, and use” (SHANGHAI RINGENE BIOPHARMA CO., LTD., priority 2018, dated 2025).

Read-outs that look alike come from different tables or passages of the source. Bounds are passed on as bounds.

One test deals with SHP2 enzyme (Homo sapiens (Human), UniProt Q06124). As to the kind of experiment: Inhibitory activity against SHP2 enzyme (Caliper conversion rate). In kind it is biochemical. The settings on record: read-out: SHP2 Enzyme Inhibition IC50 Value. The procedure:
(1) Preparing 1×Reaction Buffer according to the BPS Biosciences' Instructions for Use of the SHP2 enzyme. (2) Preparing a compound concentration gradient: Test the test compound at 10 μM under 3× dilution for 10 concentrations, diluting to a 100% dimethyl sulfoxide solution at a 100× final concentration in a 384-well plate, and diluting the compound with Precision 4× for 10 concentrations. Transferring 250 nL of the compound at the 100× final concentration to a target plate OptiPlate-384F using a dispenser Echo 550. […] (3) Preparing the activation peptide solution at a 5× final concentration with the 1×Reaction Buffer, adding 5 μL of the solution to a reaction plate, respectively, and centrifuging at 1000 rpm for 1 min. (4) Preparing an enzyme solution at a 2.5× final concentration with the 1×Reaction Buffer, adding 10 μL of the solution to the reaction plate, respectively, centrifuging at 1000 rpm for 1 min, and incubating at room temperature for 60 min. (5) Preparing a substrate peptide solution at a 2.5× final concentration with the 1×Reaction Buffer, centrifuging at 1000 rpm for 1 min, and incubating at room temperature for 30 min. (6) Adding 30 μL of stop test solution to stop the reaction, centrifuging at 1000 rpm for […], and mixing well by shaking. (7) Reading the conversion rate with a Caliper EZ Reader. (7) Data analysis:
Wherein: Conversion %/_sample is the reading of a conversion rate of a sample; Conversion %_min: mean of negative control wells, which represents the reading of a conversion rate in absence of enzyme activity wells; Conversion %_max: mean of a ratio of positive control wells, which represents the reading of a conversion rate in absence of compound inhibition wells.

The test system of a further test is MV4-11 leukemia cells. As to the kind of experiment: Inhibition of proliferation of MV4-11 leukemia cells (CellTiter-Glo, 72 h). The settings on record: read-out: IC50 value, MV4-11 cell proliferation. In kind it is cell-based. The method, then: Specific experimental procedures: 1) At Day 0: Inoculating trypsin-digested cells in 96-well plate and suspending the plate in cell culture medium; measure cell density using an automatic cell counter, diluting the cells with the culture medium to appropriate density, adding 100 μl of cell suspension in the 96-well plate, and incubating a cell-free medium as a control well in a cell incubator with […] at 37° C. overnight; 2) Day 1: Treating test compounds of the cells using a drug for a total of 8 concentrations, and diluting at a 3× concentration, wherein 10 μM is a starting test concentration of the test compounds. […] IC50 values are obtained by a four-parameter regression using software attached to the plate reader (the specific results are shown in Table 2).
(In general: In ATP-based viability assays light output follows the ATP content of the culture.)

[1] abbreviates: Homo sapiens, MV4-11, 72 h, in uM.

Chain of SHP2 enzyme (Q06124 whole entry): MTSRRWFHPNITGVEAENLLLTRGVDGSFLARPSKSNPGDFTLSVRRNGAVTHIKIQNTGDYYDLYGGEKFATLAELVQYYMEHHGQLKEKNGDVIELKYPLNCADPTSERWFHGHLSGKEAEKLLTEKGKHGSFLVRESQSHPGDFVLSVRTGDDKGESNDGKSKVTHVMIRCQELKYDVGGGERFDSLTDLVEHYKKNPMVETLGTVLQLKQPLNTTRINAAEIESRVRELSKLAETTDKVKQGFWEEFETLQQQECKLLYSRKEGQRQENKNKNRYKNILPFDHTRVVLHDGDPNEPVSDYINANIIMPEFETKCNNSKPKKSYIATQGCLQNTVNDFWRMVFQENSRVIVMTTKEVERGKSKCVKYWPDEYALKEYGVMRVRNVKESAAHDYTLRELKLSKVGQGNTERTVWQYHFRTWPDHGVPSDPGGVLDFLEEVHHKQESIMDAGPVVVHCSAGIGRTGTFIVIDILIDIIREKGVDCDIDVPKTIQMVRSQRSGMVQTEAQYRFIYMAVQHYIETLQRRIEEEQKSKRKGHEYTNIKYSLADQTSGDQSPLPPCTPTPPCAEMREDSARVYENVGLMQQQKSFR

For the compound `Nc1nc(N2CCC3(CC2)Cc2ccccc2[C@H]3N)n2ccnc2c1Sc1cccnc1C(F)(F)F` [Example 5], the IC50 at SHP2 enzyme is 0.8 nM; with MV4-11 leukemia cells (Homo sapiens, MV4-11, 72 h), less than 0.0015 µM. The corresponding values for `Cc1nc(N2CCC(C)(N)CC2)n2ccnc2c1-c1cccc(Cl)c1Cl` [Comparative Compound 1, 1-(8-(2,3-dichlorophenyl)-7-methylimidazo [1,2-c]pyrimidin-5-yl)-4-methylpiperidin-4-amine, reference compound] are 141 nM and 1.41 µM. In the case of `Cc1nc(N2CCC(C)(N)CC2)n2ncnc2c1-c1cccc(Cl)c1Cl` [Example 21, 1-(8-(2,3-dichlorophenyl)-7-methyl-[1,2,4]triazole [1,5-c]pyrimidin-5-yl)-4-methylpiperidin-4-amine], the IC50 in the test on MV4-11 leukemia cells (setting [1]) was greater than 10 µM. On to `Cc1cc(N2CCC(C)(N)CC2)n2ccnc2c1-c1cccc(Cl)c1Cl` [Example 24, 1-(8-(2,3-dichlorophenyl)-7-methylimidazolo [1,2-a]pyridin-5-yl)-4-methylpiperidin-4-amine], for which the IC50 on SHP2 enzyme amounted to 706 nM; in the test on MV4-11 leukemia cells (setting [1]), 5.4 µM. Consider `Cc1cc(N2CCC3(CC2)Cc2ccccc2[C@H]3N)n2ccnc2c1Sc1ccnc(N)c1Cl` [Example 17, (S)-1′-(8-((2-amino-3-chloropyridin-4-yl)thio)-7-methylimidazo [1,2-a]pyridin-5-yl)-1,3-dihydrospiro [indene-2,4′-piperidine]-1-amine], for which the IC50 on SHP2 enzyme came to 9.1 nM; in the test with MV4-11 leukemia cells (Homo sapiens, MV4-11, 72 h), 0.048 µM.

`Cc1cc(N2CCC3(CC2)Cc2ccccc2[C@H]3N)n2cnnc2c1Sc1ccnc(N)c1Cl` [Example 18, (S)-1′-(8-((2-amino-3-chloropyridin-4-yl)thio)-7-methyl-[1,2,4]triazolo [4,3-a]pyridin-5-yl)-1,3-dihydrospiro [indene-2,4′-piperidine]-1-amine]: the IC50 worked out at 24.6 nM at SHP2 enzyme and 0.86 µM in the test with MV4-11 leukemia cells (Homo sapiens, MV4-11, 72 h). On to `Cc1cc(N2CCC(C)(N)CC2)n2cnnc2c1-c1cccc(Cl)c1Cl` [Example 23, 1-(8-(2,3-dichlorophenyl)-7-methyl-[1,2,4]triazole [4,3-a]pyridin-5-yl)-4-methylpiperidin-4-amine], for which the IC50 in the test with MV4-11 leukemia cells (setting [1]) was greater than 10 µM.

With `Cc1nc(N2CCC3(CC2)Cc2ccccc2C3N)n2ccnc2c1Sc1ccnc(N)c1Cl` (centres unmarked) [Example 20, 1′-(8-((2-amino-3-chloropyridin-4-yl)thio)-7-methylimidazo [1,2-c]pyrimidin-5-yl)-1,3-dihydrospiro [indene-2,4′-piperidine]-1-amine], the IC50 at SHP2 enzyme was 3.8 nM; in the test on MV4-11 leukemia cells (Homo sapiens, MV4-11, 72 h) it was 0.0094 µM. The like results for `Cc1nc(N2CCC3(CC2)Cc2ncccc2[C@H]3N)n2ccnc2c1Sc1ccnc(N)c1Cl` [Example 6, (S)-1′-(8-((2-amino-3-chloropyridin-4-yl)thio)-7-methylimidazo [1,2-c]pyrimidin-5-yl)-5,7-dihydrospiro [cyclopentano [b]pyridine-6,4′-piperidine]-5-amine] were, in that order, 1.3 nM and 0.0087 µM. In the case of `Cc1nc(N2CCC(C)(N)CC2)n2ccnc2c1Sc1cccc(Cl)c1Cl` [Example 25, 1-(8 ((2,3-dichlorophenyl)sulfanyl)-7-methylimidazole [1,2-c]pyrimidin-5-yl)-4-methylpiperidin-4-amine], the IC50 in the test on MV4-11 leukemia cells (Homo sapiens, MV4-11, 72 h) came to 1.36 µM. Take `Cc1nc(N2CCC3(CC2)Cc2ncsc2[C@H]3N)n2ccnc2c1Sc1ccnc(N)c1Cl` [Example 14, (S)-1′-(8-((2-amino-3-chloropyridin-4-yl)thio)-7-methylimidazo [1,2-c]pyrimidin-5-yl)-4,6-dihydrospiro [cyclopentano [d]thiazol-5,4′-piperidine]-6-amine]: the IC50 on SHP2 enzyme was found to be 3.1 nM; with MV4-11 leukemia cells (Homo sapiens, MV4-11, 72 h), 0.0184 µM. As for `Cc1nc(N2CCC3(CC2)Cc2ccccc2[C@H]3N)n2ccnc2c1-c1cccnc1C(F)(F)F` [Example 16, (S)-1′-(7-methyl-8-(2-(trifluoromethyl)pyridin-3-yl)imidazo [1,2-c]pyrimidin-5-yl)-1,3-dihydrospiro [indene-2,4′-piperidine]-1-amine], the IC50 on SHP2 enzyme is 9.5 nM; in the test on MV4-11 leukemia cells (Homo sapiens, MV4-11, 72 h), 0.108 µM. With `Cc1nc(N2CCC3(CC2)Cc2ccccc2[C@H]3N)n2ccnc2c1Sc1ccnc(NC2CC2)c1Cl` [Example 3, (S)-1′-(8-((3-chloro-2-(cyclopropylamino)pyridin-4-yl)thio)-7-methylimidazo [1,2-c]pyrimidin-5-yl)-1,3-dihydrospiro [indene-2,4′-piperidine]-1-amine], the IC50 was 1 nM at SHP2 enzyme and 0.0028 µM with MV4-11 leukemia cells (Homo sapiens, MV4-11, 72 h). Regarding `Cc1nc(N2CCC3(CC2)Cc2ccccc2[C@H]3N)n2ccnc2c1-c1ccnc(N)c1Cl` [Example 15, (S)-1′-(8-(2-amino-3-chloropyridin-4-yl)-7-methylimidazo [1,2-c]pyrimidin-5-yl)-1,3-dihydrospiro [indene-2,4′-piperidine]-1-amine], the IC50 at SHP2 enzyme is 12.1 nM; with MV4-11 leukemia cells (Homo sapiens, MV4-11, 72 h), 0.135 µM.

For `Cc1nc(N2CCC3(CCC[C@H]3N)CC2)n2ccnc2c1Sc1ccnc(N)c1Cl` [Example 26, (R)-8-(8-((2-amino-3-chloropyridin-4-yl)thio)-7-methylimidazole [1,2-c]pyrimidin-5-yl)-8-azaspiro [4.5] quin-1-amine], the IC50 was 6.1 nM on SHP2 enzyme and 0.147 µM in the test with MV4-11 leukemia cells (Homo sapiens, MV4-11, 72 h). Regarding `CC1(N)CCN(c2nc(N)c(-c3cccc(Cl)c3Cl)c3nccn23)CC1` [Example 27, 5-(4-amino-4-methylpiperidin-1-yl)-8-(2,3-dichlorophenyl) imidazole [1,2-c] pyrimidin-7-amine], the IC50 at SHP2 enzyme was 287 nM; with MV4-11 leukemia cells (72 h), 2.55 µM.

Consider `Cc1nc(N2CCC3(CC2)Cc2ccccc2[C@H]3N)n2ccnc2c1Sc1cccnc1C(F)(F)F` [Example 2], for which, in the test on MV4-11 leukemia cells (Homo sapiens, MV4-11, 72 h), the IC50 worked out at 0.0313 µM. On to `Cc1nc(N2CCC3(CC2)Oc2ccccc2[C@H]3N)n2ccnc2c1Sc1ccnc(N)c1Cl` [Example 13, (R)-1′-(8-((2-amino-3-chloropyridin-4-yl)thio)-7-methylimidazo [1,2-c]pyrimidin-5-yl)-3H-spiro [benzofuran-2,4′-piperidine]-3-amine], for which the IC50 is 1.8 nM at SHP2 enzyme and 0.0392 µM in the test on MV4-11 leukemia cells (Homo sapiens, MV4-11, 72 h). Turning to `Nc1nccc(Sc2c(CF)nc(N3CCC4(CC3)Cc3ccccc3[C@H]4N)n3ccnc23)c1Cl` [Example 12, (S)-1′-(8-((2-amino-3-chloropyridin-4-yl)thio)-7-(fluoromethyl)imidazo [1,2-c]pyrimidin-5-yl)-1,3-dihydrospiro [indene-2,4′-piperidine]-1-amine], the IC50 on SHP2 enzyme came out at 2.9 nM; in the test on MV4-11 leukemia cells (Homo sapiens, MV4-11, 72 h), 0.0247 µM. Turning to `CC1(N)CCN(c2nc(CF)c(-c3cccc(Cl)c3Cl)c3nccn23)CC1` [Example 28, 1-(8-(2,3-dichlorophenyl)-7-(fluoromethylene)imidazole [1,2-c]pyrimidin-5-yl)-4-methylpiperidin-4-amine], the IC50 with MV4-11 leukemia cells (Homo sapiens, MV4-11, 72 h) stood at 2.01 µM. For the compound `Cc1nc(N2CCC3(CC2)Cc2cc(F)c(F)cc2[C@H]3N)n2ccnc2c1Sc1ccnc(N)c1Cl` [Example 8, (S)-1′-(8-((2-amino-3-chloropyridin-4-yl)thio)-7-methylimidazo [1,2-c]pyrimidin-5-yl)-5,6-difluoro-1,3-dihydrospiro [indene-2,4′-piperidine]-1-amine], the IC50 came to 3.7 nM at SHP2 enzyme and 0.012 µM with MV4-11 leukemia cells (Homo sapiens, MV4-11, 72 h).

For the compound `Cc1nc(N2CCC(C)(N)CC2)n2cnnc2c1-c1cccc(Cl)c1Cl` [Example 22, 1-(8-(2,3-dichlorophenyl)-7-methyl-[1,2,4]triazole [4,3-c]pyrimidin-5-yl)-4-methylpiperidin-4-amine], the IC50 in the test on MV4-11 leukemia cells (setting [1]) was greater than 10 µM.
